Earlier results in patent US20070232537A1, “INTRANASAL PYY FORMULATIONS WITH IMPROVED TRANSMUCOSAL PHARMACOKINETICS” (Nastech Pharmaceutical Company Inc., priority 2005, published 2007).

What was measured:
[1] = test system: ciliary motility
[2] = anesthetized rats; increased from 7.5
[3] = test system: aminopeptidases
[4] = aqueous solution at physiologic pH

2-alkyl-4-hydroxyquinolines [pyo compound]
concentration producing ciliostasis / inhibiting ciliary motility [1]: 50 µg/mL

CC(=O)N[C@@H](CS)C(=O)O [N-acetyl-L-cysteine]
nasal bioavailability of human growth hormone [2]: 12.2%

CC(C)CC(N)B(O)O (stereo not drawn) [boro-leucine]
times more effective in enzyme inhibition than bestatin [3]: more than 100 times
times more effective in enzyme inhibition than puromycin [3]: more than 1000 times

CCN(CC)/[N+]([O-])=N/O.CCNCC [diethylamine/NO]
NO release rate (time) [4]: < 3 min

NCCN(CCN)/[N+]([O-])=N/O [diethylenetriamine/NO]
NO release rate (time) [4]: approximately 20 hours
